The values below come from article PMC11425624, “Synthesis of Novel Cu(II), Co(II), Fe(II), and Ni(II) Hydrazone Metal Complexes as Potent Anticancer Agents: Spectroscopic, DFT, Molecular Docking, and MD Simulation Studies” (ACS Omega, 2024).

Series [1] deals with A549. The series is described as follows: MTT cytotoxic activity assay, A549 cells, 72 h. It counts as cell-based, human. Conditions: for IC50: A549 human lung cancer cell line, MTT. The protocol: (§1) The complexes were tested in human lung cancer and normal embryonic kidney cell lines for 72 h.
The MTT stock solution (50 μL, 5 mg/mL) was added to each well. Absorbance was measured using an Epoch 2 ELISA plate reader at 590 nm. The IC50 values were calculated using GraphPad Prism Software version 5.
Background: Tetrazolium dyes change colour on reduction, which living cells bring about.

Series [2] concerns HEK-293T. The series is described as follows: MTT cytotoxic activity assay, HEK-293T cells, 72 h. Conditions: HEK-293T healthy human embryonic kidney cell line. Type of series: cell-based. The protocol:
as §1
Cytotoxic activity studies of compounds (L, L-Cu, L-Co, and L-Fe) were conducted according to the literature.[60] Human lung epithelial carcinoma cells (A549; ATCC CCL-185) and healthy human embryonic kidney cells (HEK-293T) were cultured in Dulbecco’s modified Eagle’s medium-high-glucose supplemented with 10% fetal bovine serum and 1% GlutaMAX in a CO2 incubator at 37 °C. Cells seeded in 96-well plates were exposed to 200, 100, 50, and 25 μM of compounds for 72 h. The MTT stock solution (50 μL, 5 mg/mL) was added to each well. Absorbance was measured using an Epoch 2 ELISA plate reader at 590 nm. The IC50 values were calculated using GraphPad Prism Software version 5.

Series [3] in a line: Dissolution in cytotoxicity assay medium (0.5% DMSO, DMEM). Type of series: physicochemical. The source says:
When the ligand and L-Cu were compared, the cytotoxic effect of L-Cu was almost 17 times more cytotoxic than that of the ligand, including 2-hydroxybenzylidene and 4-fluorobenzohydrazide groups. […] However, the effect of the other two metal complexes (L-Co and L-Fe) and the ligand used as the starting material on the growth of A549 cells was very low compared to that of the positive control drug.

Where [4] appears, read: A549, 50 μM concentration of compound, 72 h.
Setting [5] is: A549, 200 μM concentration of compound, 72 h.

Take `O=C(NN=Cc1ccccc1O)c1ccc(F)cc1` [L, 4-Fluoro-N′-(2-hydroxybenzylidene)benzohydrazide]: the IC50 in series [1] (72 h) came to 36.7 µM; in series [2], 18.2 µM. Moreover, the viability at 50 µM in series [1] (Homo sapiens, A549, 50 μM concentration of compound, 72 h, read-out: Cell viability) amounted to 44.9%. Further, the viability at 200 µM in series [1] (Homo sapiens, A549, 200 μM concentration of compound, 72 h, read-out: Cell viability rate) is 8.51%.
The compound `O=C(NN=Cc1ccccc1[O][Cu][O]c1ccccc1C=NNC(=O)c1ccc(F)cc1)c1ccc(F)cc1` [L-Cu] registered a Cell viability in series [1] (setting [4]) of 5.10%. The same compound gave a Cell viability rate in series [1] (setting [5]) of 4.66%. Also, the “Effectiveness relative to cisplatin” value in series [1] (A549 cells) is reported as “approximately twice”. Further, the IC50 came out at 2.14 µM in series [1] (72 h) and 2.32 µM in series [2]. For the same compound, the “Times more cytotoxic than the ligand” value in series [1] (L-Cu compared with ligand L) is reported as approximately 17 times.
Consider `O=C(NN=Cc1ccccc1[O][Fe][O]c1ccccc1C=NNC(=O)c1ccc(F)cc1)c1ccc(F)cc1` [L-Fe], for which, in series [1] (setting [4]), the Cell viability worked out at 92.96%. In series [1] (setting [5]), this compound had a Cell viability rate of 5.72%. Further, the IC50 in series [1] (72 h) was determined as 78.8 µM; in series [2] it was 69.2 µM.
Regarding `O.O=C(NN=Cc1ccccc1[O-])c1ccc(F)cc1.O=C(NN=Cc1ccccc1[O-])c1ccc(F)cc1.[Ni+2]` [L-Ni], the “Solubility in assay medium” value in series [3] was “not fully dissolved in 0.5% DMSO and was precipitated in DMEM”.
Regarding `N.N.[Cl][Pt][Cl]` [cisplatin, reference compound], the results for the IC50 in series [1] (72 h) and in series [2] were 4.23 µM and 2.62 µM, respectively.

One may read the IC50 as the concentration that gives 50% inhibition. For orientation: viability means the share of living cells, or the viability signal relative to a control.
